In patent US20250026745A1 (Bluejay Therapeutics, Inc., priority 2023, published 2025) one finds IC50 data, which are given here for 28 compounds.

What is called IC50 is the concentration that inhibits the measured activity by half.

The test concerns the target recombinant 17β-HSD13 protein (Homo sapiens (Human), UniProt Q7Z5P4). Kind of test: 17β-HSD13 biochemical assay (NAD+/NADH Glo chemiluminescence). The conditions noted are these: 17β-HSD13 50 nM, NAD+ 10 mM, β-estradiol 20 μM, 2 hours room temperature. On the procedure:
17β-HSD13 biochemical assays are generically described in patents WO 2022/020730, WO 2021/003295, and WO 2023/023310. More specifically, recombinant 17β-HSD13 protein was assayed in a buffer containing 200 mM Tris pH 7.5, 0.01% Triton X-100, and 0.02% BSA into a 384-well assay plate. Compounds were incubated with 17β-HSD13 (final 50 nM) and NAD+ (final 10 mM) at room temperature for 1 h prior to substrate addition. The assay reaction was then initiated by addition of β-estradiol (final 20 μM), and the reaction mixture was incubated for 2 hours at room temperature. Product formation was detected with chemiluminescence by adding equal volume of NAD+/NADH Glo reagent (Promega, #G9062) and read on a PHERAstar microplate reader (BMG LABTECH). IC50 values were determined with GraphPad Prism®, where log-transformed concentration values and the inhibition data were fitted to a four-parameter logistic equation. Y=Bottom+(Top−Bottom)/(1+10^((Log IC50−X)*HillSlope)). The original, % control, or % inhibition data are represented by Y along with their minimal (Bottom) and maximal (Top) values. The inhibitor concentration is represented by X, IC50 is the concentration at 50% maximal value, and Hill Slope is the slope factor.

Each structure is given as a SMILES string.

recombinant 17β-HSD13 protein, sequence (Q7Z5P4 20-300): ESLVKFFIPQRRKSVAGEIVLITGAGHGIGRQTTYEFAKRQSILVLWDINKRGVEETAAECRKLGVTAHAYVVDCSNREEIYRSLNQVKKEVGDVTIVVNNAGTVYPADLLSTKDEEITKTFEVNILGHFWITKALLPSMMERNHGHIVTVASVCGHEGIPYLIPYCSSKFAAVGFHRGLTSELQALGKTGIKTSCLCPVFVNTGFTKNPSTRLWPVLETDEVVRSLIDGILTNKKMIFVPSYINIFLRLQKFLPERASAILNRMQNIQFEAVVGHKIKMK

Take `O=C1N(Cc2ccccc2)C(=O)C2(CC2)N1Cc1nnc(-c2ccc(Cl)c(O)c2Cl)s1` [Compound I-36, 6-benzyl-4-((5-(2,4-dichloro-3-hydroxyphenyl)-1,3,4-thiadiazol-2-yl)methyl)-4,6-diazaspiro[2.4]heptane-5,7-dione]: the IC50 stood at 38.5 nM.
On to `O=C1N(Cc2nnc(-c3ccc(F)c(O)n3)s2)C2(CC2)C(=O)N1C1(c2ccccc2)CC1` [Compound I-104, 4-((5-(5-fluoro-6-hydroxypyridin-2-yl)-1,3,4-thiadiazol-2-yl)methyl)-6-(1-phenylcyclopropyl)-4,6-diazaspiro[2.4]heptane-5,7-dione], for which the IC50 amounted to 176 nM.
With `CNC(=O)c1ccc(CN2C(=O)N(Cc3nnc(-c4ccc(F)c(O)c4F)s3)C3(CC3)C2=O)cc1` [Compound I-93, 4-((4-((5-(2,4-difluoro-3-hydroxyphenyl)-1,3,4-thiadiazol-2-yl)methyl)-5,7-dioxo-4,6-diazaspiro[2.4]heptan-6-yl)methyl)-N-methylbenzamide] the figure was 75.4 nM; with `O=C1N(CC(F)(F)F)C(=O)C2(CC2)N1Cc1nnc(-c2ccc(Cl)c(O)c2Cl)s1` [Compound I-17, 4-((5-(2,4-dichloro-3-hydroxyphenyl)-1,3,4-thiadiazol-2-yl)methyl)-6-(2,2,2-trifluoroethyl)-4,6-diazaspiro[2.4]heptane-5,7-dione], 106 nM; with `O=C1N(Cc2ccccc2)C(=O)C2(CC2)N1Cc1nnc(-c2nc(C(F)(F)F)c(F)c(O)c2F)s1` [Compound I-59, 6-benzyl-4-((5-(3,5-difluoro-4-hydroxy-6-(trifluoromethyl)pyridin-2-yl)-1,3,4-thiadiazol-2-yl)methyl)-4,6-diazaspiro[2.4]heptane-5,7-dione], 161 nM.
The figure for `CC[C@@H](C)N1C(=O)N(Cc2nnc(-c3ccc(F)c(O)n3)s2)C2(CC2)C1=O` [Compound I-77, (R)-6-(sec-butyl)-4-((5-(5-fluoro-6-hydroxypyridin-2-yl)-1,3,4-thiadiazol-2-yl)methyl)-4,6-diazaspiro[2.4]heptane-5,7-dione] is 1060 nM.
In the case of `CCN1C(=O)N(Cc2nnc(-c3ccc(F)c(O)n3)s2)C2(CC2)C1=O` [Compound I-75, 6-ethyl-4-((5-(5-fluoro-6-hydroxypyridin-2-yl)-1,3,4-thiadiazol-2-yl)methyl)-4,6-diazaspiro[2.4]heptane-5,7-dione], the IC50 was found to be 1360 nM.
As for `CC#CC(N1C(=O)N(Cc2nnc(-c3ccc(F)c(O)c3F)s2)C2(CC2)C1=O)C(F)(F)F` (stereo not shown) [Compound I-94, 4-((5-(2,4-difluoro-3-hydroxyphenyl)-1,3,4-thiadiazol-2-yl)methyl)-6-(1,1,1-trifluoropent-3-yn-2-yl)-4,6-diazaspiro[2.4]heptane-5,7-dione], the IC50 was 6.77 nM.
The figure for `O=C1N(CCC(F)(F)F)C(=O)C2(CC2)N1Cc1nnc(-c2ccc(F)c(O)c2F)s1` [Compound I-29, 4-((5-(2,4-difluoro-3-hydroxyphenyl)-1,3,4-thiadiazol-2-yl)methyl)-6-(3,3,3-trifluoropropyl)-4,6-diazaspiro[2.4]heptane-5,7-dione] is 18.6 nM; for `O=C1N(CC(F)(F)F)C(=O)C2(CC2)N1Cc1nnc(-c2ccc(Cl)c(O)c2F)s1` [Compound I-24, 4-((5-(4-chloro-2-fluoro-3-hydroxyphenyl)-1,3,4-thiadiazol-2-yl)methyl)-6-(2,2,2-trifluoroethyl)-4,6-diazaspiro[2.4]heptane-5,7-dione] it is 71.4 nM; for `CCN1C(=O)N(Cc2nnc(-c3cc(C(F)(F)F)cc(O)c3Cl)s2)C2(CC2)C1=O` [Compound I-13, 4-((5-(2-chloro-3-hydroxy-5-(trifluoromethyl)phenyl)-1,3,4-thiadiazol-2-yl)methyl)-6-ethyl-4,6-diazaspiro[2.4]heptane-5,7-dione] it is 13.8 ± 2.2 nM.
As to `O=C1N(C(c2ccc(F)cc2F)C(F)(F)F)C(=O)C2(CC2)N1Cc1nnc(-c2ccc(F)c(O)n2)s1` (stereo not shown) [Compound I-89, 6-(1-(2,4-difluorophenyl)-2,2,2-trifluoroethyl)-4-((5-(5-fluoro-6-hydroxypyridin-2-yl)-1,3,4-thiadiazol-2-yl)methyl)-4,6-diazaspiro[2.4]heptane-5,7-dione], the IC50 was 15.6 nM.
Consider `O=C1N([C@@H](c2ccccc2)C(F)(F)F)C(=O)C2(CC2)N1Cc1nnc(-c2ccc(F)c(O)n2)s1` [Compound I-88, (S)-4-((5-(5-fluoro-6-hydroxypyridin-2-yl)-1,3,4-thiadiazol-2-yl)methyl)-6-(2,2,2-trifluoro-1-phenylethyl)-4,6-diazaspiro[2.4]heptane-5,7-dione], for which the IC50 is 29.1 nM.
Take `O=C1N(C2CC2)C(=O)C2(CC2)N1Cc1nnc(-c2ccc(F)c(O)c2F)s1` [Compound I-43, 6-cyclopropyl-4-((5-(2,4-difluoro-3-hydroxyphenyl)-1,3,4-thiadiazol-2-yl)methyl)-4,6-diazaspiro[2.4]heptane-5,7-dione]: the IC50 stood at 18.5 nM.
For `O=C1N(C(c2ccc(F)cc2F)C(F)(F)F)C(=O)C2(CC2)N1Cc1nnc(-c2ccc(F)c(O)c2Cl)s1` (single isomer, unassigned) [Compound I-54B], the IC50 was found to be 8.43 nM.
For `O=C1N(c2ccccc2)C(=O)C2(CC2)N1Cc1nnc(-c2ccc(F)c(O)c2F)s1` [Compound I-85, 4-((5-(2,4-difluoro-3-hydroxyphenyl)-1,3,4-thiadiazol-2-yl)methyl)-6-phenyl-4,6-diazaspiro[2.4]heptane-5,7-dione], the IC50 came to 13.2 nM.
Regarding `O=C1N(CC(F)(F)F)C(=O)C2(CC2)N1Cc1nnc(-c2nc(C(F)(F)F)c(F)c(O)c2F)s1` [Compound I-58, 4-((5-(3,5-difluoro-4-hydroxy-6-(trifluoromethyl)pyridin-2-yl)-1,3,4-thiadiazol-2-yl)methyl)-6-(2,2,2-trifluoroethyl)-4,6-diazaspiro[2.4]heptane-5,7-dione], the IC50 was found to be 293 nM.
With `CCCCN1C(=O)N(Cc2nnc(-c3ccc(F)c(O)c3F)s2)C2(CC2)C1=O` [Compound I-28, 6-butyl-4-((5-(2,4-difluoro-3-hydroxyphenyl)-1,3,4-thiadiazol-2-yl)methyl)-4,6-diazaspiro[2.4]heptane-5,7-dione] the figure was 8.11 nM.
`O=C1N(Cc2ccccc2)C(=O)C2(CC2)N1Cc1nnc(-c2ccc(F)c(O)n2)s1` [Compound I-74, 6-benzyl-4-((5-(5-fluoro-6-hydroxypyridin-2-yl)-1,3,4-thiadiazol-2-yl)methyl)-4,6-diazaspiro[2.4]heptane-5,7-dione]: the IC50 was 147 nM.
For the compound `O=C1N(CC(F)(F)F)C(=O)C2(CC2)N1Cc1nnc(-c2cc(C(F)(F)F)c(F)c(O)n2)s1` [Compound I-60, 4-((5-(5-fluoro-6-hydroxy-4-(trifluoromethyl)pyridin-2-yl)-1,3,4-thiadiazol-2-yl)methyl)-6-(2,2,2-trifluoroethyl)-4,6-diazaspiro[2.4]heptane-5,7-dione], the IC50 turned out to be 2960 nM.
With `N#Cc1ccccc1CN1C(=O)N(Cc2nnc(-c3ccc(F)c(O)c3Cl)s2)C2(CC2)C1=O` [Compound I-38, 2-((4-((5-(2-chloro-4-fluoro-3-hydroxyphenyl)-1,3,4-thiadiazol-2-yl)methyl)-5,7-dioxo-4,6-diazaspiro[2.4]heptan-6-yl)methyl)benzonitrile] the figure was 39.4 nM; with `C[C@H](COCC(=O)O)N1C(=O)N(Cc2nnc(-c3ccc(F)c(O)c3F)s2)C2(CC2)C1=O` [Compound I-48], 1060 nM.
Consider `CC(C)N1C(=O)N(Cc2nnc(-c3ccc(F)c(O)n3)s2)C2(CC2)C1=O` [Compound I-76, 4-((5-(5-fluoro-6-hydroxypyridin-2-yl)-1,3,4-thiadiazol-2-yl)methyl)-6-isopropyl-4,6-diazaspiro[2.4]heptane-5,7-dione], for which the IC50 was 1390 nM.
With `O=C1N(CC(F)(F)F)C(=O)C2(CC2)N1Cc1nnc(-c2cc(C(F)(F)F)cc(O)c2F)s1` [Compound I-39, 4-((5-(2-fluoro-3-hydroxy-5-(trifluoromethyl)phenyl)-1,3,4-thiadiazol-2-yl)methyl)-6-(2,2,2-trifluoroethyl)-4,6-diazaspiro[2.4]heptane-5,7-dione] the figure was 8.45 nM.
With `CCN1C(=O)N(Cc2nnc(-c3cncc(O)c3Cl)s2)C2(CC2)C1=O` [Compound I-11, 4-((5-(4-chloro-5-hydroxypyridin-3-yl)-1,3,4-thiadiazol-2-yl)methyl)-6-ethyl-4,6-diazaspiro[2.4]heptane-5,7-dione] the figure was 245 nM; with `CC[C@H](C)N1C(=O)N(Cc2nnc(-c3ccc(F)c(O)n3)s2)C2(CC2)C1=O` [Compound I-78, (S)-6-(sec-butyl)-4-((5-(5-fluoro-6-hydroxypyridin-2-yl)-1,3,4-thiadiazol-2-yl)methyl)-4,6-diazaspiro[2.4]heptane-5,7-dione], 934 nM.
The figure for `CCN1C(=O)N(Cc2nnc(-c3ccc(Cl)c(O)c3F)s2)C2(CC2)C1=O` [Compound I-23, 4-[[5-(4-chloro-2-fluoro-3-hydroxy-phenyl)-1,3,4-thiadiazol-2-yl]methyl]-6-ethyl-4,6-diazaspiro[2.4]heptane-5,7-dione] is 78.8 nM; for `CCN1C(=O)N(Cc2nnc(-c3cnc(F)c(O)c3)s2)C2(CC2)C1=O` [Compound I-2, 6-ethyl-4-((5-(6-fluoro-5-hydroxypyridin-3-yl)-1,3,4-thiadiazol-2-yl)methyl)-4,6-diazaspiro[2.4]heptane-5,7-dione] it is 156 nM.
